# Experimental data as given in the supplement of paper PMC10307832.
# What was measured:
# Assay in all cases: relative viability (nuclei count vs DMSO), 5 days (fraction); higher = more cells survive
# IU1-47 + Luminespib = compound: CC1=CC(=C(N1C2=CC=C(C=C2)Cl)C)C(=O)CN3CCCCC3 [IU1-47] + CCNC(=O)c1noc(-c2cc(C(C)C)c(O)cc2O)c1-c1ccc(CN2CCOCC2)cc1 [Luminespib] (partner 0.01 µM)
# Summary of the method: (§1)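 Relative viability equals treated-well nuclei counts divided by vehicle-well nuclei counts. Counts came from 4× images of lung cancer cell lines grown in 1536-well plates for 5 days after pin-tool dosing on the day after seeding. Dosing used one drug alone or a fixed anchor-drug dose plus five library-drug doses (not always all listed) in √10 steps, and values are medians of duplicate plates.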
# FG-4592 + Decitabine = compound: Cc1nc(C(=O)NCC(=O)O)c(O)c2ccc(Oc3ccccc3)cc12 [FG-4592] + Nc1ncn([C@H]2C[C@H](O)[C@@H](CO)O2)c(=O)n1 [Decitabine] (partner 2 µM)
# Summary of the method: as §1
# FG-4592 + Trametinib = compound: Cc1nc(C(=O)NCC(=O)O)c(O)c2ccc(Oc3ccccc3)cc12 [FG-4592] + CC(=O)Nc1cccc(-n2c(=O)n(C3CC3)c(=O)c3c(Nc4ccc(I)cc4F)n(C)c(=O)c(C)c32)c1 [Trametinib] (partner 0.02 µM)
# Summary of the method: as §1
# FG-4592 + Linsitinib = compound: Cc1nc(C(=O)NCC(=O)O)c(O)c2ccc(Oc3ccccc3)cc12 [FG-4592] + C[C@]1(O)C[C@@H](c2nc(-c3ccc4ccc(-c5ccccc5)nc4c3)c3c(N)nccn32)C1 [Linsitinib] (partner 1 µM)
# Summary of the method: as §1
cell line,measurement,setting,value
LXF-289,relative viability,IU1-47 + Luminespib; first compound 0.08 µM,0.822
same,relative viability,IU1-47 + Luminespib; first compound 0.253 µM,0.629
same,relative viability,IU1-47 + Luminespib; first compound 0.8 µM,0.916
same,relative viability,IU1-47 + Luminespib; first compound 2.53 µM,0.5
same,relative viability,IU1-47 + Luminespib; first compound 8 µM,0.468
same,relative viability,FG-4592 + Decitabine; first compound 0.08 µM,0.425
same,relative viability,FG-4592 + Decitabine; first compound 0.253 µM,0.386
same,relative viability,FG-4592 + Decitabine; first compound 0.8 µM,0.35
same,relative viability,FG-4592 + Decitabine; first compound 2.53 µM,0.378
same,relative viability,FG-4592 + Decitabine; first compound 8 µM,0.305
same,relative viability,FG-4592 + Trametinib; first compound 0.08 µM,0.676
same,relative viability,FG-4592 + Trametinib; first compound 0.253 µM,0.68
same,relative viability,FG-4592 + Trametinib; first compound 0.8 µM,0.682
same,relative viability,FG-4592 + Trametinib; first compound 2.53 µM,0.712
same,relative viability,FG-4592 + Trametinib; first compound 8 µM,0.731
same,relative viability,FG-4592 + Linsitinib; first compound 0.08 µM,0.972
same,relative viability,FG-4592 + Linsitinib; first compound 0.253 µM,0.947
same,relative viability,FG-4592 + Linsitinib; first compound 0.8 µM,1.02
same,relative viability,FG-4592 + Linsitinib; first compound 2.53 µM,0.968
same,relative viability,FG-4592 + Linsitinib; first compound 8 µM,1.02
NCI-H23,relative viability,IU1-47 + Luminespib; first compound 0.08 µM,0.206
same,relative viability,IU1-47 + Luminespib; first compound 0.253 µM,0.237
same,relative viability,IU1-47 + Luminespib; first compound 0.8 µM,0.203
same,relative viability,IU1-47 + Luminespib; first compound 2.53 µM,0.229
same,relative viability,IU1-47 + Luminespib; first compound 8 µM,0.209
same,relative viability,FG-4592 + Decitabine; first compound 0.08 µM,0.322
same,relative viability,FG-4592 + Decitabine; first compound 0.253 µM,0.268
same,relative viability,FG-4592 + Decitabine; first compound 0.8 µM,0.334
same,relative viability,FG-4592 + Decitabine; first compound 2.53 µM,0.265
same,relative viability,FG-4592 + Decitabine; first compound 8 µM,0.267
same,relative viability,FG-4592 + Trametinib; first compound 0.08 µM,0.381
same,relative viability,FG-4592 + Trametinib; first compound 0.253 µM,0.38
same,relative viability,FG-4592 + Trametinib; first compound 0.8 µM,0.37
same,relative viability,FG-4592 + Trametinib; first compound 2.53 µM,0.394
same,relative viability,FG-4592 + Trametinib; first compound 8 µM,0.327
same,relative viability,FG-4592 + Linsitinib; first compound 0.08 µM,0.611
same,relative viability,FG-4592 + Linsitinib; first compound 0.253 µM,0.501
same,relative viability,FG-4592 + Linsitinib; first compound 0.8 µM,0.635
same,relative viability,FG-4592 + Linsitinib; first compound 2.53 µM,0.496
same,relative viability,FG-4592 + Linsitinib; first compound 8 µM,0.463
NCI-H522,relative viability,IU1-47 + Luminespib; first compound 0.08 µM,1.32
same,relative viability,IU1-47 + Luminespib; first compound 0.253 µM,1.27
same,relative viability,IU1-47 + Luminespib; first compound 0.8 µM,1.35
same,relative viability,IU1-47 + Luminespib; first compound 2.53 µM,0.864
same,relative viability,IU1-47 + Luminespib; first compound 8 µM,1.23
same,relative viability,FG-4592 + Decitabine; first compound 0.08 µM,0.706
same,relative viability,FG-4592 + Decitabine; first compound 0.253 µM,0.514
same,relative viability,FG-4592 + Decitabine; first compound 2.53 µM,0.65
same,relative viability,FG-4592 + Decitabine; first compound 8 µM,0.74
same,relative viability,FG-4592 + Trametinib; first compound 0.08 µM,0.798
same,relative viability,FG-4592 + Trametinib; first compound 0.253 µM,0.712
same,relative viability,FG-4592 + Trametinib; first compound 2.53 µM,0.676
same,relative viability,FG-4592 + Trametinib; first compound 8 µM,0.873
NCI-H1299,relative viability,FG-4592 + Linsitinib; first compound 0.08 µM,0.979
same,relative viability,FG-4592 + Linsitinib; first compound 0.253 µM,0.939
same,relative viability,FG-4592 + Linsitinib; first compound 0.8 µM,0.956
same,relative viability,FG-4592 + Linsitinib; first compound 2.53 µM,0.989
same,relative viability,FG-4592 + Linsitinib; first compound 8 µM,0.964
NCI-H1563,relative viability,IU1-47 + Luminespib; first compound 0.08 µM,0.468
same,relative viability,IU1-47 + Luminespib; first compound 0.253 µM,0.52
same,relative viability,IU1-47 + Luminespib; first compound 0.8 µM,0.538
same,relative viability,IU1-47 + Luminespib; first compound 2.53 µM,0.506
same,relative viability,IU1-47 + Luminespib; first compound 8 µM,0.497
same,relative viability,FG-4592 + Linsitinib; first compound 0.08 µM,1.27
same,relative viability,FG-4592 + Linsitinib; first compound 0.253 µM,1.24
same,relative viability,FG-4592 + Linsitinib; first compound 0.8 µM,1.19
same,relative viability,FG-4592 + Linsitinib; first compound 2.53 µM,1.27
same,relative viability,FG-4592 + Linsitinib; first compound 8 µM,1.22
NCI-H1623,relative viability,IU1-47 + Luminespib; first compound 0.08 µM,0.602
same,relative viability,IU1-47 + Luminespib; first compound 0.253 µM,0.611
same,relative viability,IU1-47 + Luminespib; first compound 0.8 µM,0.519
same,relative viability,IU1-47 + Luminespib; first compound 2.53 µM,0.456
same,relative viability,IU1-47 + Luminespib; first compound 8 µM,0.661
NCI-H1648,relative viability,FG-4592 + Decitabine; first compound 0.08 µM,0.549
same,relative viability,FG-4592 + Decitabine; first compound 0.253 µM,0.484
same,relative viability,FG-4592 + Decitabine; first compound 2.53 µM,0.416
same,relative viability,FG-4592 + Decitabine; first compound 8 µM,0.635
same,relative viability,FG-4592 + Trametinib; first compound 0.08 µM,0.485
same,relative viability,FG-4592 + Trametinib; first compound 0.253 µM,0.445
same,relative viability,FG-4592 + Trametinib; first compound 2.53 µM,0.456
same,relative viability,FG-4592 + Trametinib; first compound 8 µM,0.493
NCI-H1650,relative viability,IU1-47 + Luminespib; first compound 0.08 µM,0.169
same,relative viability,IU1-47 + Luminespib; first compound 0.253 µM,0.201
same,relative viability,IU1-47 + Luminespib; first compound 0.8 µM,0.18
same,relative viability,IU1-47 + Luminespib; first compound 2.53 µM,0.175
same,relative viability,IU1-47 + Luminespib; first compound 8 µM,0.221
same,relative viability,FG-4592 + Decitabine; first compound 0.08 µM,0.504
same,relative viability,FG-4592 + Decitabine; first compound 0.253 µM,0.378
same,relative viability,FG-4592 + Decitabine; first compound 0.8 µM,0.358
same,relative viability,FG-4592 + Decitabine; first compound 2.53 µM,0.421
same,relative viability,FG-4592 + Decitabine; first compound 8 µM,0.331
same,relative viability,FG-4592 + Trametinib; first compound 0.08 µM,0.604
same,relative viability,FG-4592 + Trametinib; first compound 0.253 µM,0.573
same,relative viability,FG-4592 + Trametinib; first compound 0.8 µM,0.615
same,relative viability,FG-4592 + Trametinib; first compound 2.53 µM,0.603
same,relative viability,FG-4592 + Trametinib; first compound 8 µM,0.628
NCI-H1703,relative viability,FG-4592 + Linsitinib; first compound 0.08 µM,0.837
same,relative viability,FG-4592 + Linsitinib; first compound 0.253 µM,0.55
same,relative viability,FG-4592 + Linsitinib; first compound 0.8 µM,0.679
same,relative viability,FG-4592 + Linsitinib; first compound 2.53 µM,0.755
same,relative viability,FG-4592 + Linsitinib; first compound 8 µM,0.617
NCI-H2170,relative viability,IU1-47 + Luminespib; first compound 0.08 µM,0.706
same,relative viability,IU1-47 + Luminespib; first compound 0.253 µM,1.13
same,relative viability,IU1-47 + Luminespib; first compound 0.8 µM,0.759
same,relative viability,IU1-47 + Luminespib; first compound 2.53 µM,0.66
same,relative viability,IU1-47 + Luminespib; first compound 8 µM,0.994
same,relative viability,FG-4592 + Decitabine; first compound 0.08 µM,0.445
same,relative viability,FG-4592 + Decitabine; first compound 0.253 µM,0.479
same,relative viability,FG-4592 + Decitabine; first compound 0.8 µM,0.447
same,relative viability,FG-4592 + Decitabine; first compound 2.53 µM,0.506
same,relative viability,FG-4592 + Decitabine; first compound 8 µM,0.356
same,relative viability,FG-4592 + Trametinib; first compound 0.08 µM,0.874
same,relative viability,FG-4592 + Trametinib; first compound 0.253 µM,0.886
same,relative viability,FG-4592 + Trametinib; first compound 0.8 µM,0.858
same,relative viability,FG-4592 + Trametinib; first compound 2.53 µM,0.946
same,relative viability,FG-4592 + Trametinib; first compound 8 µM,0.637
NCI-H2228,relative viability,IU1-47 + Luminespib; first compound 0.08 µM,0.154
same,relative viability,IU1-47 + Luminespib; first compound 0.253 µM,0.122
same,relative viability,IU1-47 + Luminespib; first compound 0.8 µM,0.162
same,relative viability,IU1-47 + Luminespib; first compound 2.53 µM,0.144
same,relative viability,IU1-47 + Luminespib; first compound 8 µM,0.132
same,relative viability,FG-4592 + Trametinib; first compound 0.08 µM,0.497
same,relative viability,FG-4592 + Trametinib; first compound 0.253 µM,0.503
same,relative viability,FG-4592 + Trametinib; first compound 0.8 µM,0.494
same,relative viability,FG-4592 + Trametinib; first compound 2.53 µM,0.406
same,relative viability,FG-4592 + Trametinib; first compound 8 µM,0.208
same,relative viability,FG-4592 + Linsitinib; first compound 0.08 µM,0.586
same,relative viability,FG-4592 + Linsitinib; first compound 0.253 µM,0.628
same,relative viability,FG-4592 + Linsitinib; first compound 0.8 µM,0.795
same,relative viability,FG-4592 + Linsitinib; first compound 2.53 µM,0.612
same,relative viability,FG-4592 + Linsitinib; first compound 8 µM,0.727
NCI-H2342,relative viability,IU1-47 + Luminespib; first compound 0.08 µM,0.698
same,relative viability,IU1-47 + Luminespib; first compound 0.253 µM,0.679
same,relative viability,IU1-47 + Luminespib; first compound 0.8 µM,0.775
same,relative viability,IU1-47 + Luminespib; first compound 2.53 µM,0.713
same,relative viability,IU1-47 + Luminespib; first compound 8 µM,0.745
same,relative viability,FG-4592 + Decitabine; first compound 0.08 µM,0.841
same,relative viability,FG-4592 + Decitabine; first compound 0.253 µM,0.793
same,relative viability,FG-4592 + Decitabine; first compound 0.8 µM,0.662
same,relative viability,FG-4592 + Decitabine; first compound 2.53 µM,0.772
same,relative viability,FG-4592 + Decitabine; first compound 8 µM,0.608
same,relative viability,FG-4592 + Trametinib; first compound 0.08 µM,0.755
same,relative viability,FG-4592 + Trametinib; first compound 0.253 µM,0.841
same,relative viability,FG-4592 + Trametinib; first compound 0.8 µM,0.746
same,relative viability,FG-4592 + Trametinib; first compound 2.53 µM,0.738
same,relative viability,FG-4592 + Trametinib; first compound 8 µM,0.641
SW 900,relative viability,IU1-47 + Luminespib; first compound 0.08 µM,0.191
same,relative viability,IU1-47 + Luminespib; first compound 0.253 µM,0.172
same,relative viability,IU1-47 + Luminespib; first compound 0.8 µM,0.181
same,relative viability,IU1-47 + Luminespib; first compound 2.53 µM,0.176
same,relative viability,IU1-47 + Luminespib; first compound 8 µM,0.194
same,relative viability,FG-4592 + Decitabine; first compound 0.253 µM,0.47
same,relative viability,FG-4592 + Decitabine; first compound 2.53 µM,0.465
same,relative viability,FG-4592 + Decitabine; first compound 8 µM,0.349
same,relative viability,FG-4592 + Trametinib; first compound 0.253 µM,0.819
same,relative viability,FG-4592 + Trametinib; first compound 2.53 µM,0.871
same,relative viability,FG-4592 + Trametinib; first compound 8 µM,0.619
